Data: US5780642A, “Imidazole derivatives as therapeutic agents” (KNOLL Aktiengesellschaft, priority 1993, dated 1998)
Counter-ions that a name gives are not always drawn.

The compounds below were run on Zymosan Stimulated Macrophages (arachidonic acid release) (assay: Test A: Inhibition of Arachidonic Acid Release from Zymosan Stimulated Macrophages). Conditions: Mus musculus, Macrophage, inhibition of arachidonic acid release, zymosan stimulated mouse peritoneal macrophages; tested at 100, 50, 20, 10, 5 and 1 μM; ≤100 μM considered active; read-out: Test A IC50.
Type: cell-based, mouse (female MF1 mice)
Method: Test A was carried out in the following way:
Inhibition of Arachidonic Acid Release from Zymosan Stimulated Macrophages
Female MF1 mice (weighing 20 to 25 g) were killed using a rising concentration of CO2. The mice were laid on their backs and the abdomens wiped with 70% alcohol. The skin was pulled back, exposing the peritoneal wall. Medium A (5 ml) (see below) was injected into the peritoneal cavity of each mouse followed by approximately 1 ml of air using a 20 ml syringe and a 21G×40 mm needle in order to form a suspension of macrophage cells. The medium and cells were then removed using a 19G×40 mm needle. The resulting suspension was returned to a sterile beaker kept on ice. The extracts from all the mice were pooled and this pooled cell suspension was counted using a Coulter counter and adjusted to a final cell count of 1-1.3×10^6 cells/ml prior to labelling with [^3 H]-arachidonic acid. Typically five mice provided sufficient cells for each multiwell plate.
Sufficient [^3 H]-arachidonic acid in ethanol to give a final concentration of 1.6 μCi/ml (equivalent to 40 μCi/plate) was blown to dryness under nitrogen. The arachidonic acid was then resuspended in 1 or 2 ml of the cell suspension which was then mixed with the remainder of the cell suspension in a centrifuge bottle. The labelled cell suspension was then plated out into sterile plastic 96 flat-bottomed well plates (250 μl per well) and incubated overnight at 37° C. in a moist atmosphere of 5% CO2, 95% air.
The following day, non-adherent cells were removed by washing 3 times with sterile phosphate buffered saline (PBS). The adherent peritoneal macrophages were then cultured for a further 24 hours in the presence or absence of drugs, in medium B (see below) at 37° in a 5% CO2 atmosphere in order to measure the effects of drugs on the spontaneous release of arachidonic acid in the absence of stimulus. After this incubation, supernatants were removed to give media 1 and stored in sealed multi-well plates at 4° C. prior to scintillation counting. Drugs which potentiated spontaneous release of arachidonic acid (125% of controls) were deemed to be toxic at the concentration at which this phenomenon occurred. The supernatants were replaced by fresh medium C containing fresh drug and a stimulus. Three drugs were tested at six concentrations (100, 50, 20, 10, 5 and 1 μM) in replicates of four on each plate. The other wells contained controls consisting of a positive control (e.g. dexamethasone), medium (B) only and medium C only.
Incubation was then continued for a further 5 hours, whereupon the supernatants were collected to give media 2 and the adherent cells washed with PBS. The cells were then lysed with 100 μl of 0.1% TRITON® X100 in a 0.1% solution of bovine serum albumin in 0.9% saline and mechanically disrupted to give cell lysates. These supernatants (media 2) and cell lysates (Cells) were also stored in sealed multi-well plates at 4° C. prior to scintillation counting. 200 μl aliquots of media, or 100 μl aliquots of cells were counted using 2 ml of OPTIPHASE "HIGH SAFE" (Trademark of LKB) as scintillant.
The percentage of arachidonic acid released was calculated using the mean values for each group of 4 wells in the following equation. [formula]
The value for the arachidonic acid release in the absence of stimulus (spontaneous, cpm of media 2) from cells which had been exposed to neither stimulus nor drug was subtracted from all equivalent values (cpm media 2, stimulated with or without drug) to give the net stimulated release. The percentage inhibition of arachidonic acid release caused by a drug may then be calculated using the following equation. [formula]
Compounds of formula I were tested at six concentrations (100, 50, 20, 10, 5 and 1 μM) and IC50 values calculated. Compounds with IC50 values≤100 μM are considered to be active. Advantageous compounds have an IC50 value<50 μM.
Medium A (for peritoneal lavage) […]

SMILES | IC50
CCc1ccc(OCCNCCCn2ccnc2)cc1 [Example 5, N-[2-(4-Ethylphenoxy)ethyl]-3-(imidazol-1-yl)propylamine] | 17 µM
Cc1ccc(OCCNCCCn2ccnc2)cc1C [Example 6, N-[2-(3,4-Dimethylphenoxy)ethyl]-3-(imidazol-1-yl)propylamine] | 20 µM
Clc1ccc(OCCCNCCCn2ccnc2)cc1 [Example 9, 3-(4-Chlorophenoxy)-3'-(imidazol-1-yl)dipropylamine] | 50 µM
c1ccc(COc2ccc(OCCNCCCn3ccnc3)cc2)cc1 [Example 10, N-[2-(4-Benzyloxyphenoxy)ethyl]-3-(imidazol-1-yl)propylamine dihydrochloride hydrate] | 36 µM
Clc1ccc(SCCNCCCn2ccnc2)cc1 [Example 11, N-[2-(4-Chlorophenylthio)ethyl]-3-(imidazol-1-yl)propylamine] | 37 µM
Cc1nccn1CCCNCCCc1ccc(Cl)cc1 [Example 12, 3-(4-Chlorophenyl)-3'-(2-methylimidazol-1-yl)dipropylamine] | 7 µM
CC(C)(CNCCCn1ccnc1)c1ccc(Cl)cc1 [Example 13, 2-(4-Chlorophenyl)-3'-(imidazol-1-yl)-2-methyldipropylamine dihydrochloride] | 9 µM
Clc1ccc(CCCNCCCn2ccnc2)cc1 [Example 14, 3-(4-Chlorophenyl)-3'-(imidazol-1-yl)dipropylamine] | 6 µM
CC(C)(CNCCCn1ccnc1)Sc1ccc(Cl)cc1 [Example 18, 2-(4-Chlorophenylthio)-3'-(imidazol-1-yl)-2-methyldipropylamine dihydrochloride] | 20 µM
Cc1cc(SCC(C)(C)NCCCn2ccnc2)c(C)cc1Cl [Example 20, N-[2-(4-Chloro-2,5-xylylthio)-1,1-dimethylethyl]-3-(imidazol-1-yl)propylamine dihydrochloride] | 4 µM
CC(C)(NCCCn1cnc(CCN)c1)c1ccc(Cl)cc1 [Example 22, 3-[4-(2-Aminoethyl)imidazol-1-yl]-N-[1-(4-chlorophenyl)-1-methylethyl]propylamine trihydrochloride] | 26 µM
CC(C)(NCCCn1ccnc1C(O)c1ccccc1)c1ccc(Cl)cc1 (stereo not drawn) [Example 23, α-(1-{3-[1-(4-Chlorophenyl)-1-methylethylamino]propyl}-imidazol-2-yl)benzyl alcohol] | 7 µM
Cc1ccc(S(=O)(=O)Cc2ccc(C(C)(C)NCCCn3ccnc3)cc2)cc1C [Example 24, 3-(imidazol-1-yl)-N-{1-methyl-1-[4-(3,4-xylylsulphonylmethyl)phenyl]ethyl}propylamine dihydrochloride hydrate] | 22 µM
CCCCCCS(=O)(=O)Cc1ccc(C(C)(C)NCCCn2ccnc2)cc1 [Example 25, N-(1-[4-(Hexylsulphonylmethyl)phenyl]-1-methylethyl)-3-(imidazol-1-yl)propylamine dihydrochloride] | 11 µM
CCCN(CCC)S(=O)(=O)c1ccc(C(C)(C)NCCCn2ccnc2)cc1 [Example 26, 4-{1-[3-(Imidazol-1-yl)propylamino]-1-methylethyl}-N,N-dipropylbenzenesulphonamide] | 10 µM
CC(C)(NCCCn1ccnc1)c1ccc(CCOCc2ccccc2)cc1 [Example 27, N-{1-[4-(2-Benzyloxyethyl)phenyl]-1-methylethyl}-3-(imidazol-1-yl)propylamine] | 70 µM

SMILES | IC50
CC(C)(NCCCn1ccnc1)c1ccc(C(=O)NC2CCCCC2)cc1 [Example 28, N-Cyclohexyl-4-{1-[3-(imidazol-1-yl)propylamino]-1-methylethyl}benzamide] | 25 µM
CC(C)(NCCCn1ccnc1)c1ccc(CC(=O)NCc2ccc(Cl)cc2)cc1 [Example 30, N-(4-Chlorobenzyl)-4-{1-[3-(imidazol-1-yl)propylamino]-1-methylethyl}phenylacetamide] | 20 µM
N#Cc1ccc(OCCNCCCn2ccnc2)cc1 [Example 31, 4-{2-[3-(Imidazol-1-yl)propylamino]ethoxy}benzonitrile sesquihydrochloride] | 74 µM
Clc1ccc(C2(CCNCCCn3ccnc3)OCCO2)cc1 [Example 32, N-{2-[2-(4-Chlorophenyl)-1,3-dioxolan-2-yl]ethyl}-3-(imidazol-1-yl)propylamine] | 9 µM
CSc1ccc(OCC(C)(C)NCCCn2ccnc2)cc1 [Example 33, N-[1,1-Dimethyl-2-(4-methylthiophenoxy)ethyl]-3-(imidazol-1-yl)propylamine dihydrochloride hydrate] | 32 µM
CCCC(CCC)(NCCCn1ccnc1)c1ccc(CC(=O)NC)cc1 [Example 34, 4-{1-[3-(Imidazol-1-yl)propylamino]-1-propylbutyl)phenyl-N-methylacetamide] | 76 µM
CC(C)(COc1ccccc1)NCCCn1ccnc1 [Example 35, 3-(Imidazol-1-yl)-N-(1,1-dimethyl-2-phenoxyethyl) propylamine] | 47 µM
COc1ccccc1CCC(C)(C)NCCCn1ccnc1 [Example 36, 3'-(Imidazol-1-yl)-3-(2-methoxyphenyl)-1,1-dimethyldipropylamine] | 60 µM
CC(C)(NCCCn1ccnc1)c1ccc(CC(=O)NC2CCCCCC2)cc1 [Example 37, N-Cycloheptyl-4-{1-[3-(imidazol-1-yl)propylamino]-1-methylethyl}phenylacetamide] | 49 µM
CC(C)(COc1ccc(C(F)(F)F)cc1)NCCCn1ccnc1 [Example 39, N-{2-[4-(Trifluoromethyl)phenoxy]-1,1-dimethylethyl}-3-(imidazol-1-yl)propylamine dimaleate] | 0.2 µM
CC(C)(COc1ccc(F)cc1)NCCCn1ccnc1 [Example 40, N-[2-(4-Fluorophenoxy)-1,1-dimethylethyl]-3-(imidazol-1-yl)propylamine dimaleate hemihydrate] | 0.3 µM
CCC(CC)(CO)c1ccc(C(C)(C)NCCCn2ccnc2)cc1 [Example 41, 2-Ethyl-2(4-{1-[3-(imidazol-1-yl)propylamino]-1-methylethyl}phenyl)butan-1-ol] | 10 µM
COc1ccc(S(=O)(=O)NCCc2ccc(C(C)(C)NCCCn3ccnc3)cc2)cc1 [Example 42, N-[2-(4-{1-[3-(Imidazol-1-yl)propylamino]-1-methylethyl}phenyl)ethyl]-4-methoxybenzenesulphonamide] | 9 µM
CCC(CC)(NCC(O)Cn1ccnc1)c1ccccc1 (stereo not shown) [Example 44, 1-(1-Ethyl-1-phenylpropylamino)-3-(imidazol-1-yl)-propan-2-ol] | 120 µM
CCCCCCNC(=O)Cc1ccc(C(C)(C)NCC(O)Cn2ccnc2)cc1 (stereo not shown) [Example 47, N-Hexyl-4-{1-[2-hydroxy-3-(imidazol-1-yl)propylamino]-1-methylethyl}phenylacetamide] | 64 µM

Same assay, conditions: Mus musculus, Macrophage, read-out: Test A IC50

SMILES | IC50
CC(C)(Cc1ccc(Cl)cc1)NCCCn1ccnc1 [Example 21, N-[2-(4-Chlorophenyl)-1,1-dimethylethyl]-3-(imidazol-1-yl)propylamine dihydrochloride] | 8 µM

Same assay, conditions: inhibition of arachidonic acid release, zymosan stimulated mouse peritoneal macrophages; tested at 100, 50, 20, 10, 5 and 1 μM; ≤100 μM considered active; read-out: Test A IC50

SMILES | IC50
CC(C)(NCC(O)Cn1ccnc1)c1ccc(Cl)cc1 (single isomer, unassigned; (+)) [Example 45, (+)-1-[1-(4-Chlorophenyl)-1-methylethylamino]-3-(imidazol-1-yl)propan-2-ol] | 170 µM
CC(C)(NCC(O)Cn1ccnc1)c1ccc(Cl)cc1 (single isomer, unassigned; (-)) [Example 46, (-)-1-[1-(4-Chlorophenyl)-1-methylethylamino]-3-(imidazol-1-yl)propan-2-ol] | 80 µM
